Experimental data reported in US20250171437A1 (Agios Pharmaceuticals,Inc., priority 2022, published 2025).

target: T1, human PAH with the R408W mutation (A375 R408W cells) (Homo sapiens, UniProt P00439, R408W); assay: Cell Based Phenylalanine Flux Assay; conditions: A375 cells expressing R408W PAH; 24 hrs with compound, then 20 μM sepiapterin and 800 μM 13C9,15N-Phenylalanine for 4 hours; 13C-Tyrosine by LC-MS; average where tested multiple times
T1 construct: expressed in transfected cells
T1 sequence (P00439 1-452 R408W): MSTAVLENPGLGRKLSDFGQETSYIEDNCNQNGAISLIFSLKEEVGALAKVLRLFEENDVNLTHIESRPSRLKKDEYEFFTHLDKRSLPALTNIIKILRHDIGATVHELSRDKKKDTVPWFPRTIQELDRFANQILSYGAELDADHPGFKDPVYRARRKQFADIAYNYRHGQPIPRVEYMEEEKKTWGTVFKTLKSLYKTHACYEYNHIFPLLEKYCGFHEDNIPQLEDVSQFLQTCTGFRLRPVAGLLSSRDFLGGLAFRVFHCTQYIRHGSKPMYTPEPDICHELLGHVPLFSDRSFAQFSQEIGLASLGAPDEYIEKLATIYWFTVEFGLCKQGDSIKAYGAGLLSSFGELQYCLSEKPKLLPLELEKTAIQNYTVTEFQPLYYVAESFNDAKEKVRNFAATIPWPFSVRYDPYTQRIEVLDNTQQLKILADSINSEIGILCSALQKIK
Procedure: Cells expressing R408W PAH were made by transducing A375 cells with lentivirus encoding human PAH with the R408W mutation in pLVX-Puro, then selecting with puromycin until stable cell lines were generated. A375 R408W cells were seeded into 96 well plates in DMEM+10% FBS at a density of 40,000 cells/well one hour prior to compound addition. Compounds were resuspended in DMSO, and 2-fold serial dilutions were performed to generate a 10-point dose curve. Compounds were added to plated cells in a total volume of 100 μl, and a final DMSO concentration of 0.5%. Each compound was tested in duplicate. Following compound addition, cells were placed in a 5% CO2, 37° C. tissue culture incubator for 24 hrs. After the incubation period, 20 μM sepiapterin and 800 μM 13C9,15N-Phenylalanine were added. After 4 hours, cell media was removed. An aliquot of 10 μl of cell media was combined with 200 μl of extraction buffer (80% acetonitrile/20% H2O) for each well. Determination of ^13C-Tyrosine concentration was assessed by liquid chromatography mass spectrometry.
Specific compounds disclosed herein were tested in the foregoing assay and they were determined to have an AC50 according to the following scores: (A) less than or equal to 0.500 μM, (B) greater than 0.500 and less than […], (C) greater than or equal to 1.000 and less than 5.000 μM, (D) greater than or equal to 5.000 μM, (E) no fit, and (NT) not tested, as shown below. Where a compound was tested multiple times, the average value of the tests is reported.

AC50	Compound
≥ 5 µM	Cc1nc(C2(O)CC2)oc1C(=O)N1CCc2[nH]cnc2C1c1nc2cc(F)ccc2o1 (centres unmarked) [listing 1 of 2 here]
≥ 5 µM	CC(C)(O)c1nc(Br)c(C(=O)N2CCc3[nH]cnc3C2c2nc3cc(F)ccc3o2)s1 (centres unmarked) [listing 1 of 2 here]
≥ 5 µM	CC(C)(O)c1cc(C(=O)N2CCc3[nH]cnc3C2c2nc3cc(F)ccc3o2)sn1 (centres unmarked)
≥ 5 µM	Cc1nc(C(C)(C)O)oc1C(=O)N1CCc2[nH]cnc2C1c1nc2ccc(F)cc2o1 (centres unmarked) [listing 1 of 2 here]
≥ 5 µM	Cn1ccc(C(=O)N2CCc3[nH]cnc3C2c2nc3cc(F)ccc3o2)n1 (centres unmarked) [listing 1 of 2 here]
≥ 5 µM	Cc1ncoc1C(=O)N1CCc2[nH]cnc2C1c1nc2cc(F)ccc2o1 (centres unmarked) [listing 1 of 2 here]
≥ 5 µM	Cc1nc(C(C)O)oc1C(=O)N1CCc2[nH]cnc2C1c1nc2ccc(F)cc2o1 (centres unmarked) [listing 1 of 2 here]
≥ 5 µM	Cc1nc(C(C)(C)N(C)C)oc1C(=O)N1CCc2[nH]cnc2C1c1nc2cc(F)ccc2o1 (centres unmarked) [listing 1 of 2 here]
≥ 5 µM	CC(C)(O)Cn1cc(C(=O)N2CCc3[nH]cnc3C2c2nc3cc(F)ccc3o2)cn1 (centres unmarked)
1 to 5 µM	Cc1nc(C2(O)CC2)oc1C(=O)N1CCc2[nH]cnc2C1c1nc2cc(F)ccc2o1 (centres unmarked) [listing 2 of 2 here]
≥ 5 µM	CC(C)(O)c1cc(C(=O)N2CCc3[nH]cnc3C2c2nc3cc(F)ccc3o2)no1 (centres unmarked)
1 to 5 µM	CC(C)(O)c1nc(C(F)F)c(C(=O)N2CCc3[nH]cnc3C2c2nc3cc(F)ccc3o2)s1 (centres unmarked)
1 to 5 µM	CC(C)(O)c1nc(Br)c(C(=O)N2CCc3[nH]cnc3C2c2nc3cc(F)ccc3o2)s1 (centres unmarked) [listing 2 of 2 here]
1 to 5 µM	O=C(c1oc(C2CCN2)nc1C(F)F)N1CCc2[nH]cnc2C1c1nc2cc(F)ccc2o1 (centres unmarked)
1 to 5 µM	Cn1nc(Cl)nc1C(=O)N1CCc2[nH]cnc2C1c1nc2cc(F)ccc2o1 (centres unmarked)
1 to 5 µM	CC(C)(O)c1ncc(C(=O)N2CCc3[nH]cnc3C2c2nc3cc(F)ccc3o2)o1 (centres unmarked)
1 to 5 µM	CC(C)(O)c1ncc(C(=O)N2CCc3[nH]cnc3C2c2nc3cc(F)ccc3o2)s1 (centres unmarked)
1 to 5 µM	Cc1nc(C(C)(C)O)oc1C(=O)N1CCc2[nH]cnc2C1c1nc2ccc(F)cc2o1 (centres unmarked) [listing 2 of 2 here]
1 to 5 µM	CC(C)(c1nc(C(F)F)c(C(=O)N2CCc3[nH]cnc3C2c2nc3cc(F)ccc3o2)o1)S(C)(=O)=O (centres unmarked)
1 to 5 µM	O=C(c1cn[nH]c1Cl)N1CCc2[nH]cnc2C1c1nc2cc(F)ccc2o1 (centres unmarked)
≥ 5 µM	Cn1nc(N)cc1C(=O)N1CCc2[nH]cnc2C1c1nc2cc(F)ccc2o1 (centres unmarked)
1 to 5 µM	Cn1ccc(C(=O)N2CCc3[nH]cnc3C2c2nc3cc(F)ccc3o2)n1 (centres unmarked) [listing 2 of 2 here]
1 to 5 µM	Cn1nc(C(F)(F)F)nc1C(=O)N1CCc2[nH]cnc2C1c1nc2cc(F)ccc2o1 (centres unmarked)
≥ 5 µM	O=C(c1ccn[nH]1)N1CCc2[nH]cnc2C1c1nc2cc(F)ccc2o1 (centres unmarked)
1 to 5 µM	Cc1ncoc1C(=O)N1CCc2[nH]cnc2C1c1nc2cc(F)ccc2o1 (centres unmarked) [listing 2 of 2 here]
1 to 5 µM	Cc1nc(-c2cnn(C)c2)sc1C(=O)N1CCc2[nH]cnc2C1c1nc2cc(F)ccc2o1 (centres unmarked)
1 to 5 µM	Cc1nc(C(C)O)oc1C(=O)N1CCc2[nH]cnc2C1c1nc2ccc(F)cc2o1 (centres unmarked) [listing 2 of 2 here]
1 to 5 µM	Cc1nc(C(C)(C)N(C)C)oc1C(=O)N1CCc2[nH]cnc2C1c1nc2cc(F)ccc2o1 (centres unmarked) [listing 2 of 2 here]

Further lines, the compound ahead of its results:

Compound	AC50
NCc1ccc2c(C(=O)N3CCc4[nH]cnc4C3c3nc4cc(F)ccc4o3)cnn2c1 (centres unmarked)	≥ 5 µM
Nc1cc(C(=O)N2CCc3[nH]cnc3C2c2nc3cc(F)ccc3o2)n(C(F)F)n1 (centres unmarked) [listing 1 of 2 here]	≥ 5 µM
CC(C)(O)C1CCN(c2ccc3c(C(=O)N4CCc5[nH]cnc5C4c4nc5cc(F)ccc5o4)cnn3c2)CC1 (centres unmarked) [listing 1 of 2 here]	≥ 5 µM
N#Cc1ccc2c(C(=O)N3CCc4[nH]cnc4C3c3nc4cc(F)ccc4o3)cnn2c1 (centres unmarked) [listing 1 of 2 here]	≥ 5 µM
O=C(c1nnc(-c2c[nH]nc2C(F)(F)F)o1)N1CCc2[nH]cnc2C1c1nc2cc(F)ccc2o1 (centres unmarked) [listing 1 of 2 here]	≥ 5 µM
O=C(c1cnn2cc(N3CCN(CC(F)(F)F)CC3)ccc12)N1CCc2[nH]cnc2C1c1nc2cc(F)ccc2o1 (centres unmarked) [listing 1 of 2 here]	≥ 5 µM
O=C(c1cnn2cc(N3CCC(F)CC3)ccc12)N1CCc2[nH]cnc2C1c1nc2cc(F)ccc2o1 (centres unmarked) [listing 1 of 2 here]	≥ 5 µM
Cn1cc(-c2ncc(C(=O)N3CCc4[nH]cnc4C3c3nc4ccc(Br)cc4o3)o2)cn1 (centres unmarked) [listing 1 of 2 here]	≥ 5 µM
Cn1nc(C(F)(F)F)nc1C(=O)N1CCc2[nH]cnc2C1c1nc2ccc(F)cc2o1 (centres unmarked) [listing 1 of 2 here]	≥ 5 µM
O=C(c1cnco1)N1CCc2[nH]cnc2C1c1nc2ccc(F)cc2o1 (centres unmarked) [listing 1 of 2 here]	≥ 5 µM
COCc1ccc2c(C(=O)N3CCc4[nH]cnc4C3c3nc4ccc(F)cc4o3)cnn2c1 (centres unmarked) [listing 1 of 2 here]	≥ 5 µM
Nc1cc2c(C(=O)N3CCc4[nH]cnc4C3c3nc4cc(F)ccc4o3)cnn2cc1F (centres unmarked) [listing 1 of 2 here]	≥ 5 µM
Cc1nc(C(C)O)oc1C(=O)N1CCc2[nH]cnc2C1c1nc2c(F)cccc2o1 (centres unmarked) [listing 1 of 2 here]	≥ 5 µM
Cc1ccc2oc(C3c4nc[nH]c4CCN3C(=O)c3cnn4cc(CCN(C)C)ccc34)nc2c1 (centres unmarked) [listing 1 of 2 here]	≥ 5 µM
CCOC(=O)N1CCN(c2ccc3c(C(=O)N4CCc5[nH]cnc5C4c4nc5cc(F)ccc5o4)cnn3c2)CC1 (centres unmarked) [listing 1 of 2 here]	≥ 5 µM
O=C(c1cnn2cc(N3CCC(O)CC3)ccc12)N1CCc2[nH]cnc2C1c1nc2cc(F)ccc2o1 (centres unmarked)	1 to 5 µM
Nc1cc(C(=O)N2CCc3[nH]cnc3C2c2nc3cc(F)ccc3o2)n(C(F)F)n1 (centres unmarked) [listing 2 of 2 here]	1 to 5 µM
CC(C)(O)C1CCN(c2ccc3c(C(=O)N4CCc5[nH]cnc5C4c4nc5cc(F)ccc5o4)cnn3c2)CC1 (centres unmarked) [listing 2 of 2 here]	1 to 5 µM
CC(C)(O)c1cc(C(=O)N2CCc3[nH]cnc3C2c2nc3c(F)cccc3o2)on1 (centres unmarked)	1 to 5 µM
CC(C)(O)c1cc(C(=O)N2CCc3[nH]cnc3C2c2nc3ccc(F)cc3o2)on1 (centres unmarked)	1 to 5 µM

Compound	AC50
CC(C)(O)c1cc(C(=O)N2CCc3[nH]cnc3C2c2nc3cccc(F)c3o2)on1 (centres unmarked)	1 to 5 µM
N#Cc1ccc2c(C(=O)N3CCc4[nH]cnc4C3c3nc4cc(F)ccc4o3)cnn2c1 (centres unmarked) [listing 2 of 2 here]	1 to 5 µM
O=C(c1cnn2cc(N3CCS(=O)(=O)CC3)ccc12)N1CCc2[nH]cnc2C1c1nc2cc(F)ccc2o1 (centres unmarked)	≥ 5 µM
Cn1ncnc1C(=O)N1CCc2[nH]cnc2C1c1nc2c(F)cccc2o1 (centres unmarked)	1 to 5 µM
Cn1nc(C(F)(F)F)nc1C(=O)N1CCc2[nH]cnc2C1c1nc2c(F)cccc2o1 (centres unmarked)	1 to 5 µM
Cc1nc(-c2ccccn2)sc1C(=O)N1CCc2[nH]cnc2C1c1nc2cc(F)ccc2o1 (centres unmarked)	≥ 5 µM
O=C(c1nnc(-c2c[nH]nc2C(F)(F)F)o1)N1CCc2[nH]cnc2C1c1nc2cc(F)ccc2o1 (centres unmarked) [listing 2 of 2 here]	1 to 5 µM
O=C(c1cnn2cc(N3CCN(CC(F)(F)F)CC3)ccc12)N1CCc2[nH]cnc2C1c1nc2cc(F)ccc2o1 (centres unmarked) [listing 2 of 2 here]	1 to 5 µM
O=C(c1cnn2cc(N3CCC(F)CC3)ccc12)N1CCc2[nH]cnc2C1c1nc2cc(F)ccc2o1 (centres unmarked) [listing 2 of 2 here]	1 to 5 µM
Cn1cc(-c2ncc(C(=O)N3CCc4[nH]cnc4C3c3nc4ccc(Br)cc4o3)o2)cn1 (centres unmarked) [listing 2 of 2 here]	1 to 5 µM
Cn1nc(C(F)(F)F)nc1C(=O)N1CCc2[nH]cnc2C1c1nc2ccc(F)cc2o1 (centres unmarked) [listing 2 of 2 here]	1 to 5 µM
O=C(c1cnco1)N1CCc2[nH]cnc2C1c1nc2ccc(F)cc2o1 (centres unmarked) [listing 2 of 2 here]	1 to 5 µM
Cn1cc(-c2nnc(C(=O)N3CCc4[nH]cnc4C3c3nc4ccc(F)cc4o3)o2)cn1 (centres unmarked)	1 to 5 µM
COCc1ccc2c(C(=O)N3CCc4[nH]cnc4C3c3nc4ccc(F)cc4o3)cnn2c1 (centres unmarked) [listing 2 of 2 here]	1 to 5 µM
Nc1cc2c(C(=O)N3CCc4[nH]cnc4C3c3nc4cc(F)ccc4o3)cnn2cc1F (centres unmarked) [listing 2 of 2 here]	1 to 5 µM
Cn1ncnc1C(=O)N1CCc2[nH]cnc2C1c1nc2cccc(F)c2o1 (centres unmarked)	1 to 5 µM
Cc1nc(C(C)O)oc1C(=O)N1CCc2[nH]cnc2C1c1nc2c(F)cccc2o1 (centres unmarked) [listing 2 of 2 here]	1 to 5 µM
CNC(C)(C)c1nc(C)c(C(=O)N2CCc3[nH]cnc3C2c2nc3cc(F)ccc3o2)o1 (centres unmarked)	1 to 5 µM
Cc1ccc2oc(C3c4nc[nH]c4CCN3C(=O)c3cnn4cc(CCN(C)C)ccc34)nc2c1 (centres unmarked) [listing 2 of 2 here]	1 to 5 µM
CCOC(=O)N1CCN(c2ccc3c(C(=O)N4CCc5[nH]cnc5C4c4nc5cc(F)ccc5o4)cnn3c2)CC1 (centres unmarked) [listing 2 of 2 here]	1 to 5 µM
